Source: patent US20190117675A1, “Compositions And Methods To Treat And/Or Prevent Vision Disorders Of The Lens Of The Eye” (Helix Holding Company, priority 2014, published 2019)
Entries after “also recorded” stand apart in the source; their conditions may differ.

Key:
[1] = tested on: aA-crystallin-Y118D and aB-crystallin-R120G; experiment: Dissolving of accumulated crystal protein in cells carrying two crystallin mutant plasmids; type: cell-based; conditions: 10 uM, compared with 1% DMSO solution
Experimental: FIG. 13. Two mutant crystal proteins were introduced into cells. The accumulated crystal protein were treated by adding different agents.
Cyclopentanoperhy drophenanthrene compounds of the present invention refers to a compound containing cyclopentanoperhy drophenanthrene skeleton structure, including its derivatives. After the two crystal protein mutant plasmid aA-crystallin-Y118D and aB-crystallin-R120G were introduced into cells, we investigated the lanosterol and its derivatives as well as cholesterol (Cholesterol) for their effects on intracellular accumulation of crystal protein. Not all cyclopentanoperhy drophenanthrene compound have the same effect.

[2] = tested on: aggregates of various WT and mutated crystallins; experiment: In vitro protein assay: dissociation of preformed crystallin aggregates (turbidity, soluble protein, EM); type: biochemical; conditions: 37° C.
Experimental: Evaluation of the effect of lanosterol on the dissolution of crystallin aggregates by turbidity. Crystallin aggregates were formed by incubating 5mgml21 protein solution at 60° C. for 2 h (α-crystallins) or 37° C. for 48 h (β- and γ-crystallins) in the presence of 1M guanidine chloride. The preformed aggregates were re-suspended in PBS at a final protein concentration of 0.2 mg/ml and were treated with 500 μM sterols in 500 μM DPPC liposome and incubated at 37° C. for 24 h. Aggregates treated with 500 μM DPPC liposome only were used as the controls.
The α-crystallin aggregates were formed by incubating 5 mg/ml protein solutions at 60° C. for 48 h in the presence of 1 M guanidine chloride. The β- and γ-crystallin aggregates were prepared by incubating the protein solutions at 37° C. and pH 3 for 48 h. The preformed aggregates were re-suspended in PBS with a final protein concentration of 0.1 mg/ml. The re-suspended aggregates were treated by 50 μM sterols in 50 μM DPPS liposome and incubated at 37° C. for 144 h. The aggregates treated by 50 μM DPPS liposome were used as the controls. The supernatant and precipitation fractions were separated by centrifugation. The protein concentrations in the supernatant fraction were determined by absorbance at 280 nm and the percentages of the soluble proteins were calculated from three independent repetitions.
The recombinant his-tagged WT and mutated β- and γ-crystallin proteins were overexpressed in E. coli Rosetta and purified by Ni-NTA affinity column followed by gel filtration chromatography using the same protocol as those described elsewhere 13,14,16,18. The overexpression and purification of the non-tagged αA- and αB-crystallins were performed as described previously 19. The purity of the proteins were estimated to be above 95% as evaluated by one homogeneous band on 12.5% SDS-PAGE, 10% native-PAGE and a single peak in the size-exclusion chromatographyprofile. The protein concentration was determined according to the Bradford method by using BSA as the standard 20. All protein samples were prepared in 20 mM PBS buffer containing 150 mM NaCl, 1 mM EDTA and 1 mM DTT.
(§1) The aggregates of the WT and mutated αA- and αB-crystallin proteins were obtained by heating the proteins solutions containing 1 M guanidine chloride (ultrapure, Sigma) with a concentration of 5 mg/ml at 60° C. for 48 h. The aggregates of the WT and mutated β- and γ-crystallins were prepared by heating the protein solutions at pH 3 and 37° C. for 48 h. The formation of aggregates was confirmed by turbidity (absorbance at 400 nm) and transmission electron microscope (EM) measurements. The preformed aggregates were resuspended in 20 mM PBS with a final concentration of 0.1 mg/ml (approximately 5 μM). The resuspended aggregates were treated by 50 μM lanosterol or cholesterol in liposomes formed by 50 μM DPPS at 37° C. After 72 h treatment, the protein solutions were used for negative-stained EM observations. After 144 h incubation, the protein solutions were used for turbidity measurements and determinations of protein concentrations in the soluble fractions. The soluble proteins were determined by centrifuge the protein solutions to separate the supernatant and precipitation fractions. Then the protein concentration in the supernatant was determined by the Bradford method. The EM samples were prepared by depositing the protein solutions onto a freshly glow-discharged carbon coated copper grid. […]

[3] = tested on: various cataract-causing crystallin mutants; experiment: Aggresome / intracellular aggregate formation of crystallin mutants in transfected cells (confocal microscopy); type: cell-based; conditions: 0-40 μM sterols in 2% DMSO, 2 h treatment then 12 h culture; lanosterol effect dose-dependent
Experimental: The effect of lanosterol or cholesterol on the aggresome formation of various crystallins was studied by transfecting the cells using plasmids containing various crystallin genes. The cells were cultivated for 24 h to enable efficient protein expression and aggresome formation. Then the cells were treated with 0-40 μM sterols in 2% DMSO. The cells treated with 2% DMSO were used as the control. After treatment for 2 h, the cells were moved to fresh DMEM medium containing 10% fetal bovine serum and further cultivated for 12 h. Then the cells were used for microscopy analysis.
The microscopy samples were prepared by washing the slips by phosphate buffered saline (PBS) three times. The cells were fixed with 4% paraformaldehyde for 40 min followed by three times washing with PBS. The cells were permeabilized with 0.1% Triton X-100 (Sigma) in PBS for 10 min and blocked with 5% normal goat serum in PBS for 1 h at 37° C. Immunostaining was carried out by adding mouse anti-Flag antibody (1:500) or anti-p62 antibody (1:200) in PBS buffer containing 5% normal goat serum and cultivated for 1 h at 37° C. Then the slips were washed three times with PBS, and further incubated with Alexa 649-conjugated goat anti-mouse IgG (1:250) for 1 h at ambient temperature. The nuclei were counterstained with Hoechst 33342. The mounted cells were analyzed using a Carl Zeiss LSM 710 confocal microscope.

[4] = molecular target: T1, αB-crystallin R120G mutant (Homo sapiens, UniProt P02511, R120G); experiment: Negative-stain EM of aggregates treated with sterol in liposome; type: biochemical; conditions: negatively stained EM
T1 construct: made in house
T1 sequence (P02511 1-175 R120G): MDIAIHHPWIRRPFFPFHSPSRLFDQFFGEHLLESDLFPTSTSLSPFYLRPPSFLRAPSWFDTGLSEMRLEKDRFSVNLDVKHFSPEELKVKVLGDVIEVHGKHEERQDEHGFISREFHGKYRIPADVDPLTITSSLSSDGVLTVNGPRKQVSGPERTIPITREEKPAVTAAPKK
Experimental: Representative negatively stained EM pictures of the aggregates of αB-crystallin R120G mutant treated by liposome, lanosterol in liposome and cholesterol in liposome, respectively. The EM samples were stained by 1.25% uranyl acetate.
Quantitative analysis was performed by calculating the number of particles with length over 50 nm from six randomly picked viewing field. Each viewing field contained 30-50 particles.
as §1, with “After 72 h treatment, the protein solutions were used for negative-stained EM observations. After 144 h incubation, the protein solutions were used for turbidity measurements and determinations of protein concentrations in the soluble fractions.” left out, “method.” for “method. The EM samples were prepared by depositing the protein solutions onto a freshly glow-discharged carbon coated copper grid.”

CC(C)=CCC[C@@H](C)[C@H]1CC[C@H]2C3=C(CC[C@]12C)[C@@]1(C)CC[C@H](O)C[C@@H]1CC3 [Zymosterol, 5α-Cholesta-8,24-dien-3β-ol]
dissolving of accumulated crystal protein [1]: significant dissolving of the accumulated crystal protein | dissolving of accumulated crystal protein ([1]; listed as zymosterol): significantly dissolve accumulated crystals protein

CC(C)CCC[C@@H](C)[C@H]1CC[C@H]2C3=CC[C@H]4C[C@@H](O)CC[C@]4(C)[C@H]3CC[C@]12C [5α-cholest-7-en-3β-ol]
dissolving of accumulated crystal protein [1]: significant dissolving of the accumulated crystal protein | dissolving of accumulated crystal protein ([1]; listed as 5a-cholest-7-en-3β-ol): significantly dissolve accumulated crystals protein

CC(C)[C@@H](C)/C=C/[C@@H](C)[C@H]1CC[C@H]2C3=CC=C4C[C@@H](O)CC[C@]4(C)[C@H]3CC[C@]12C [ergosterol]
dissolving of accumulated crystal protein [1]: significantly dissolve accumulated crystals protein; also recorded: significant dissolving of the accumulated crystal protein

CC(C)=CCC[C@@H](C)[C@H]1CC[C@@]2(C)[C@@H]3CC[C@H]4C(C)(C)[C@@H](O)CC[C@]4(C)C3=CC[C@]12C [Parkeol]
dissolving of accumulated crystal protein [1]: significant dissolving of the accumulated crystal protein | dissolving of accumulated crystal protein ([1]; listed as parkeol): significantly dissolve accumulated crystals protein

CC(C)CCC[C@@H](C)[C@H]1CC[C@H]2[C@@H]3CC[C@H]4C[C@@H](O)CC[C@]4(C)[C@H]3CC[C@]12C [β-cholestanol]
dissolving of accumulated crystal protein [1]: significantly dissolve accumulated crystals protein; also recorded: significant dissolving of the accumulated crystal protein

CC(C)CCC[C@@H](C)[C@H]1CC[C@H]2[C@@H]3CC=C4C[C@@H](O)CC[C@]4(C)[C@H]3CC[C@]12C [Cholesterol, reference compound]
dissolving of accumulated crystal protein [1]: cannot effectively dissolve | dissolution of crystallin aggregates by turbidity ([2]; 500 μM sterols in 500 μM DPPC liposome, 24 h, 0.2 mg/ml protein): could not | dissociation of aggregates of various WT and mutated crystallins ([2]; in vitro protein assay, 50 μM sterol in 50 μM DPPS liposome): could not and not | intracellular aggregation of various cataract-causing crystallin mutants [3]: did not affect the formation of intracellular aggregates | dissociation of aggregates formed by αB-crystallin R120G mutant (number of particles with length over 50 nm) [4]: not
